Data as given in ChEMBL document CHEMBL3352079, “Pyrimidine-based tricyclic molecules as potent and orally efficacious inhibitors of wee1 kinase” (ACS Med Chem Lett, 2015).
Active and inactive are the calls of the source. The calls are words filed in the database; no cut-off is given here.

Legend:
Wee1-like protein kinase [1] = target: T1, Wee1-like protein kinase (Homo sapiens, UniProt P30291); experiment: Inhibition of human Weel1 in human NCI-H1299 cells assessed as phosphorylation of Cdk1 after overnight incubation by ELISA PD assay; type: cell-based
[2] = AUC in CD-1 mouse at 10 mg/kg, po; type: ADME, organism-based; design: dose 10 mg/kg, route oral; conditions: plasma
[3] = Half life in CD-1 mouse at 3 mg/kg, iv; type: ADME, organism-based; design: dose 3 mg/kg, route intravenous; conditions: in vivo
Wee1-like protein kinase [4] = target: T1, Wee1-like protein kinase; experiment: Inhibition of GST-tagged human Wee1
[5] = Oral bioavailability in CD-1 mouse at 10 mg/kg; type: ADME, organism-based; conditions: in vivo
NCI-H1299 [6] = experiment: Cytotoxicity against human NCI-H1299 cells assessed as cell viability after 72 hrs by CellTiterGlo assay; type: functional, cell-based; conditions: NCI-H1299, 72 h
[7] = Clearance in CD-1 mouse at 3 mg/kg, iv; type: ADME, organism-based; design: dose 3 mg/kg, route intravenous; conditions: in vivo
NCI-H1299 [8] = experiment: Antitumor activity against human NCI-H1299 cells xenografted in mouse assessed as depletion of pY15 bands at 100 mg/kg, po after 6 hrs; type: functional, organism-based; design: dose 100 mg/kg
[9] = Plasma concentration in human NCI-H1299 cells xenografted in mouse at 100 mg/kg, po qd after 6 hrs; type: ADME, organism-based; design: dose 100 mg/kg, route oral
NCI-H1299 [10] = experiment: Antitumor activity against human NCI-H1299 cells xenografted in mouse assessed as depletion of pY15 bands at 100 mg/kg, po after 10 hrs; type: functional, organism-based; design: dose 100 mg/kg
NCI-H1299 [11] = experiment: Antitumor activity against human NCI-H1299 cells xenografted in mouse assessed as tumor growth inhibition at 50 mg/kg, po qd from day 28 to 41 after tumor inoculation in presence of 10 mg/kg irinotecan; type: functional
[12] = Drug uptake in human NCI-H1299 cells xenografted in mouse assessed in tumor at 100 mg/kg, po qd after 6 hrs; type: ADME, organism-based, Neoplasm; design: dose 100 mg/kg, route oral; conditions: read-out: Drug uptake
Mus musculus = experiment: In vivo inhibition of Wee1 in human NCI-H1299 cells xenografted in mouse assessed as pY15 CDK expression at 100 mg/kg, po qd after 6 to 10 hrs; type: functional, organism-based; design: dose 100 mg/kg
NCI-H1299 [13] = experiment: Antitumor activity against human NCI-H1299 cells xenografted in mouse assessed as tumor growth delay at 50 mg/kg, po qd from day 28 to 41 after tumor inoculation in presence of 10 mg/kg irinotecan; type: functional
[14] = Drug uptake in human NCI-H1299 cells xenografted in mouse assessed in tumor at 100 mg/kg, po qd after 10 hrs; type: ADME, organism-based, Neoplasm; design: dose 100 mg/kg, route oral; conditions: read-out: Drug uptake
NCI-H1299 [15] = experiment: Antitumor activity against human NCI-H1299 cells xenografted in mouse assessed as tumor growth inhibition at 50 mg/kg, po qd from day 28 to 41 after tumor inoculation; type: functional; conditions: NCI-H1299, 672 h, read-out: TGI
[16] = Plasma concentration in human NCI-H1299 cells xenografted in mouse at 100 mg/kg, po qd after 10 hrs; type: ADME, organism-based; design: dose 100 mg/kg, route oral
NCI-H1299 [17] = experiment: Antitumor activity against human NCI-H1299 cells xenografted in mouse assessed as tumor growth inhibition at 10 mg/kg, po qd from day 28 to 41 after tumor inoculation; type: functional; conditions: NCI-H1299, 672 h, read-out: TGI

T1 sequence (P30291 whole entry): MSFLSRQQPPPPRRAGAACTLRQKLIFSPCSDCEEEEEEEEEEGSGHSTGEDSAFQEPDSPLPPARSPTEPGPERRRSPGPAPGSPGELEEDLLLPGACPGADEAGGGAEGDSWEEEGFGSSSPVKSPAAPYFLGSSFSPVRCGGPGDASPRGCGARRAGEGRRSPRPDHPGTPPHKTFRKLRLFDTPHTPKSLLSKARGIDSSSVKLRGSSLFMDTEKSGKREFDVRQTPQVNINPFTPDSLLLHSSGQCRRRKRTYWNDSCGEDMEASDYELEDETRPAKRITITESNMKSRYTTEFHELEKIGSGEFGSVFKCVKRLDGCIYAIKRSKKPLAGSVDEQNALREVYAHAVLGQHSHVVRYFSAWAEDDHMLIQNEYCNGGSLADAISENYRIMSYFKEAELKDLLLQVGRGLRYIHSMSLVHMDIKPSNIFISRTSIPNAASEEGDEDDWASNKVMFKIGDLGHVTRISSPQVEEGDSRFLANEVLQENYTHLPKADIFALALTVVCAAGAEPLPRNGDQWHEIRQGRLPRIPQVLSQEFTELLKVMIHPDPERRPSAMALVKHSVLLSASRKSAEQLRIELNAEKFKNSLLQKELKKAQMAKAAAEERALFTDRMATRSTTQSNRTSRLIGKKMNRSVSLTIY

Row | SMILES | EC50 (Wee1-like protein kinase [1]) [nM] | AUC [2] [µM·h] | half-life [3] [h] | Ki (Wee1-like protein kinase [4]) [nM] | bioavailability [5] [%] | EC50 (NCI-H1299 [6]) [nM] | clearance [7] [mL/min/kg] | other results
1 | CN1Cc2cc(Nc3ncc4c(=O)n(-c5c(Cl)cccc5Cl)c5nccn5c4n3)ccc2C(C)(C)C1 | < 13 | 9.8 | 3.9 | < 1 | 49 | 230 | 16.2 | –
2 | O=c1c2cnc(Nc3ccc(N4CCCCC4)cc3)nc2n2ccnc2n1-c1ccccc1Cl | 3800 | – | – | 5.5 | – | 9800 | – | –
3 | CN1Cc2cc(Nc3ncc4c(=O)n(-c5c(F)cccc5Cl)c5nccn5c4n3)ccc2C2(CC2)C1 | 29 | 12 | 2.6 | < 1 | 68 | 210 | 18.3 | –
4 | CN1Cc2cc(Nc3ncc4c(=O)n(-c5c(F)cccc5Cl)c5nccn5c4n3)ccc2C(C)(C)C1 | 60 | 24 | 2.8 | < 1 | 94 | 310 | 9.17 | inhibition (NCI-H1299 [8]): Active; concentration at 6 h [9]: 20 µM; inhibition (NCI-H1299 [10]): Active; TGI (NCI-H1299 [11]): 83%; concentration at 6 h [12]: 47.1 µM; inhibition (Mus musculus): Active; Activity (NCI-H1299 [13]): 25%; concentration at 10 h [14]: 53.4 µM; inhibition in vivo at 50 mg/kg (NCI-H1299 [15]): 43%; concentration at 10 h [16]: 13.7 µM
5 | CN1CCN(c2cccc(Nc3ncc4c(=O)n(-c5ccccc5Cl)c5nccn5c4n3)c2)CC1 | 1500 | – | – | 6.2 | – | 6500 | – | –
6 | CN1Cc2cc(Nc3ncc4c(=O)n(-c5ccccc5Cl)c5nccn5c4n3)ccc2C(C)(C)C1 | 98 | 12.3 | 2.8 | < 1 | 80 | 550 | 23.3 | –
7 | CN1Cc2cc(Nc3ncc4c(=O)n(-c5ccccc5Cl)c5nccn5c4n3)ccc2C2(CC2)C1 | 100 | 9.8 | 2.3 | 1.2 | 70 | 690 | 25 | –
8 | O=c1c2cnc(Nc3ccc4c(c3)CCCC4)nc2n2ccnc2n1-c1ccccc1Cl | 6000 | – | – | 26 | – | 7300 | – | –
9 | CN1CCN(c2ccccc2Nc2ncc3c(=O)n(-c4ccccc4Cl)c4nccn4c3n2)CC1 | – | – | – | > 3140 | – | – | – | –
10 | CC(=O)N1CCN(c2ccc(Nc3ncc4c(=O)n(-c5ccccc5Cl)c5nccn5c4n3)cc2)CC1 | 1100 | – | – | 6.6 | – | 3300 | – | –
11 | O=c1c2cnc(NC3CCCCC3)nc2n2ccnc2n1-c1ccccc1Cl | – | – | – | > 3140 | – | – | – | –
12 | CN1CCC(c2ccc(Nc3ncc4c(=O)n(-c5ccccc5Cl)c5nccn5c4n3)cc2)CC1 | 3100 | – | – | 8.3 | – | 9600 | – | –
13 | O=c1c2cnc(Nc3ccccc3)nc2n2ccnc2n1-c1ccccc1Cl | 6800 | – | – | 21 | – | 5900 | – | –
14 | CN1CCCc2ccc(Nc3ncc4c(=O)n(-c5ccccc5Cl)c5nccn5c4n3)cc21 | 2300 | – | – | 8.6 | – | > 10000 | – | –
15 | CN1Cc2cc(Nc3ncc4c(=O)n(-c5c(Cl)cccc5Cl)c5nccn5c4n3)ccc2C2(CC2)C1 | 27 | – | – | < 1 | – | 220 | – | –
16 | CN1CCCc2cc(Nc3ncc4c(=O)n(-c5ccccc5Cl)c5nccn5c4n3)ccc21 | 2700 | – | – | 7.4 | – | 9300 | – | –
17 | CN1CCN(c2ccc(Nc3ncc4c(=O)n(-c5ccccc5Cl)c5nccn5c4n3)cc2)CC1 | 370 | 8.4 | 1.9 | 2.3 | 72 | 1000 | 30 | –
18 | CN1CCN(c2ccc(Nc3ncc4c(=O)n(-c5c(F)cccc5Cl)c5nccn5c4n3)cc2)CC1 | – | – | – | – | – | 450 | – | –
19 | O=c1c2cnc(Nc3ccc(C4CCCCC4)cc3)nc2n2ccnc2n1-c1ccccc1Cl | 10000 | – | – | 87 | – | > 10000 | – | –
20 | CC(=O)N1Cc2cc(Nc3ncc4c(=O)n(-c5ccccc5Cl)c5nccn5c4n3)ccc2C2(CC2)C1 | 620 | – | – | 5.4 | – | 2000 | – | –
21 | CN1CCN(c2ccc(Nc3ncc4c(=O)n(-c5c(Cl)cccc5Cl)c5nccn5c4n3)cc2)CC1 | 87 | 6.5 | 1.7 | < 1 | 55 | 190 | 33.3 | –
22 | CCc1c2c(nc3ccc(OC(=O)N4CCC(N5CCCCC5)CC4)cc13)-c1cc3c(c(=O)n1C2)COC(=O)[C@]3(O)CC [IRINOTECAN] | – | – | – | – | – | – | – | inhibition in vivo at 10 mg/kg (NCI-H1299 [17]): 67%; TGI (NCI-H1299 [11]): 83%
23 | CN1CCc2ccc(Nc3ncc4c(=O)n(-c5ccccc5Cl)c5nccn5c4n3)cc2C1 | 220 | 5.2 | 1.5 | 1.6 | 52 | 770 | 36.7 | –
